According to patent US5229395A, “Potential anticancer agents derived from acridine” (Sloan-Kettering Institute For Cancer Research, priority 1991, dated 1993):

Test system: mouse leukemia L1210 cells
Experiment: Inhibitory activity against growth of mouse leukemia L1210 cells in vitro
Assay type: cell-based
Details: Mus musculus, L1210; quoted in text from Table 6; read-out: IC50 value

| Structure (SMILES) | IC50 [nM] |
| --- | --- |
| OCc1ccc(Nc2c3ccccc3nc3ccccc23)cc1 [IIIc, 9-(4'-Hydroxymethyl)anilinoacridine] | 95 |

Same assay, conditions: Table 6, acridine derivatives of formula III, growth of mouse leukemia L1210 cells; read-out: IC50

| Structure (SMILES) | IC50 [nM] |
| --- | --- |
| OCc1ccccc1Nc1c2ccccc2nc2ccccc12 [IIIa, 9-(2'-Hydroxymethyl)anilinoacridine] | 43000 |
| OCc1cccc(Nc2c3ccccc3nc3ccccc23)c1 [IIIb, 9-(3'-Hydroxymethyl)anilinoacridine] | 14 |
| OCc1ccc(Nc2c3ccccc3nc3ccccc23)cc1 [IIIc, 9-(4'-Hydroxymethyl)anilinoacridine] | 95 |
| OCCc1ccccc1Nc1c2ccccc2nc2ccccc12 [IIId] | 6500 |
| OCCc1cccc(Nc2c3ccccc3nc3ccccc23)c1 [IIIe] | 6.2 |
| OCCc1ccc(Nc2c3ccccc3nc3ccccc23)cc1 [IIIf] | 9.9 |
| Cc1ccc2nc3ccccc3c(Nc3cccc(CO)c3)c2c1 [IIIg, 9-(3'-Hydroxymethyl)anilino-2-methylacridine] | 850 |
| Cc1ccc2c(Nc3cccc(CO)c3)c3ccccc3nc2c1 [IIIh, 9-(3'-Hydroxymethyl)anilino-3-methylacridine] | 0.39 |
| COc1ccc2nc3ccccc3c(Nc3cccc(CO)c3)c2c1 [IIIi, 9-(3'-Hydroxymethyl)anilino-2-methoxyacridine] | 3500 |
| COc1ccc2c(Nc3cccc(CO)c3)c3ccccc3nc2c1 [IIIj, 9-(3'-Hydroxymethyl)anilino-3-methoxyacridine] | 0.063 |
| COc1ccc2nc3ccc(C)cc3c(Nc3cccc(CO)c3)c2c1 [IIIk, 9-(3'-Hydroxymethyl)anilino-2-methoxy-7-methylacridine] | 5800 |
| COc1ccc2nc3cc(C)ccc3c(Nc3cccc(CO)c3)c2c1 [IIIl, 9-(3'-Hydroxymethyl)anilino-2-methoxy-6-methylacridine] | 920 |
| COc1ccc2nc3ccc(OC)cc3c(Nc3cccc(CO)c3)c2c1 [IIIm, 9-(3'-Hydroxymethyl)anilino-2,7-dimethoxyacridine] | 3400 |
| COc1ccc2c(Nc3cccc(CCO)c3)c3ccccc3nc2c1 [IIIn, 9-[3'-(β-hydroxyethyl)anilino]-3-methoxyacridine] | 0.023 |
| Cc1ccc2nc3ccccc3c(Nc3ccc(CO)cc3)c2c1 [IIIo, 9-(4'-Hydroxymethyl)anilino-2-methylacridine] | 120 |
| Cc1ccc2c(Nc3ccc(CO)cc3)c3ccccc3nc2c1 [IIIp, 9-(4'-Hydroxymethyl)anilino-3-methylacridine] | 6.7 |
| COc1ccc2nc3ccccc3c(Nc3ccc(CO)cc3)c2c1 [IIIq, 9-(4'-Hydroxymethyl)anilino-2-methoxyacridine] | 620 |
| COc1ccc2c(Nc3ccc(CO)cc3)c3ccccc3nc2c1 [IIIr, 9-(4'-Hydroxymethyl)anilino-3-methoxyacridine] | 29 |
| COc1ccc2nc3ccc(C)cc3c(Nc3ccc(CO)cc3)c2c1 [IIIs, 9-(4'-Hydroxymethyl)anilino-2-methoxy-7-methylacridine] | 58 |
| COc1ccc2nc3cc(C)ccc3c(Nc3ccc(CO)cc3)c2c1 [IIIt, 9-(4'-Hydroxymethyl)anilino-2-methoxy-6-methylacridine] | 650 |
| COc1ccc2nc3ccc(OC)cc3c(Nc3ccc(CO)cc3)c2c1 [IIIu, 9-(4'-Hydroxymethyl)anilino-2,7-dimethoxyacridine] | 3400 |
| COc1ccc2c(Nc3ccc(CCO)cc3)c3ccccc3nc2c1 [IIIv] | 18 |
| COc1ccc2nc3ccc(OC)cc3c(Nc3ccc(CCO)cc3)c2c1 [IIIw] | 690 |

Same assay, conditions: Table 7, carbamate esters of formula IV, mouse L1210 cells in vitro; read-out: IC50

| Structure (SMILES) | IC50 [nM] |
| --- | --- |
| CNC(=O)OCc1ccccc1Nc1c2ccccc2nc2ccccc12 [IVa, 9-[2'-(Methylaminocarbonyloxymethyl)anilino]acridine] | 8400 |
| CC(C)NC(=O)OCc1ccccc1Nc1c2ccccc2nc2ccccc12 [IVb, 9-[2'-(Isopropylaminocarbonyloxymethyl)anilino]acridine] | 9300 |
| CNC(=O)OCc1cccc(Nc2c3ccccc3nc3ccccc23)c1 [IVc, 9-[3'-(Methylaminocarbonyloxymethyl)anilino]acridine] | 4600 |
| CC(C)NC(=O)OCc1cccc(Nc2c3ccccc3nc3ccccc23)c1 [IVd, 9-[3'-(Isopropylaminocarbonyloxymethyl)anilino]acridine] | 9.1 |
| CNC(=O)OCc1ccc(Nc2c3ccccc3nc3ccccc23)cc1 [IVe, 9-[4'-(Methylaminocarbonyloxymethyl)anilino]acridine] | 38 |
| CC(C)NC(=O)OCc1ccc(Nc2c3ccccc3nc3ccccc23)cc1 [IVf, 9-[4'-(Isopropylaminocarbonyloxymethyl)anilino]acridine] | 18 |
| CNC(=O)OCCc1cccc(Nc2c3ccccc3nc3ccccc23)c1 [IVg, 9-[3'-(β-Methylaminocarbonyloxyethyl)anilino]acridine] | 5700 |
| CC(C)NC(=O)OCCc1cccc(Nc2c3ccccc3nc3ccccc23)c1 [IVh, 9-[3'-(β-Isopropylaminocarbonyloxyethyl)anilino]acridine] | 0.91 |
| CNC(=O)OCCc1ccc(Nc2c3ccccc3nc3ccccc23)cc1 [IVi, 9-[4'-(β-Methylaminocarbonyloxyethyl)anilino]acridine] | 3.9 |
| CC(C)NC(=O)OCCc1ccc(Nc2c3ccccc3nc3ccccc23)cc1 [IVj, 9-[4'-(β-Isopropylaminocarbonyloxyethyl)anilino]acridine] | 48 |
| CNC(=O)OCc1cccc(Nc2c3ccccc3nc3cc(OC)ccc23)c1 [IVk, 9-[3'-(Methylaminocarbonyloxymethyl)anilino]-3-methoxyacridine] | 1700 |
| COc1ccc2c(Nc3cccc(COC(=O)NC(C)C)c3)c3ccccc3nc2c1 [IVl, 9-[3'-(Isopropylaminocarbonyloxymethyl)anilino]-3-methoxyacridine] | 890 |
| CNC(=O)OCc1cccc(Nc2c3cc(OC)ccc3nc3ccc(OC)cc23)c1 [IVm, 9-[3'-(Methylaminocarbonyloxymethyl)anilino]-2,7-dimethoxyacridine] | 5000 |
| COc1ccc2nc3ccc(OC)cc3c(Nc3cccc(COC(=O)NC(C)C)c3)c2c1 [IVn, 9-[3'-(isopropylaminocarbonyloxymethyl)-anilino]-2,7-dimethoxyacridine] | 4000 |
| CNC(=O)OCc1ccc(Nc2c3cc(OC)ccc3nc3ccc(OC)cc23)cc1 [IVo, 9-[4'-(Methylaminocarbonyloxymethyl)anilino]-2,7-dimethoxyacridine] | 3600 |
| COc1ccc2nc3ccc(OC)cc3c(Nc3ccc(COC(=O)NC(C)C)cc3)c2c1 [IVp, 9-[4'-(Isopropylaminocarbonyloxymethyl)anilino]-2,7-dimethoxyacridine] | 6600 |

Test system: L1210 cells
Experiment: In vivo antileukemic effect (increased life span) in female BDF1 mice inoculated with L1210 cells
Details: 100 mg/kg; mice inoculated with 1.0×10^6 L1210 cells
Description: On the other hand, the corresponding methyl carbamate ester IVc gave good ILS values of 71% and >250% at the dose levels of 100 and 200 mg/kg, respectively.

| Structure (SMILES) | ILS (increased life span) [%] |
| --- | --- |
| CNC(=O)OCc1cccc(Nc2c3ccccc3nc3ccccc23)c1 [IVc, 9-[3'-(Methylaminocarbonyloxymethyl)anilino]acridine] | 71 |

Same assay, conditions: 200 mg/kg; mice inoculated with 1.0×10^6 L1210 cells

| Structure (SMILES) | ILS (increased life span) [%] |
| --- | --- |
| CNC(=O)OCc1cccc(Nc2c3ccccc3nc3ccccc23)c1 [IVc, 9-[3'-(Methylaminocarbonyloxymethyl)anilino]acridine] | > 250 |

Same assay, conditions: 100 and 150 mg/kg dose level; female BDF1 mice inoculated with 1.0×10^6 L1210 cells

| Structure (SMILES) | ILS (increased life span) [%] |
| --- | --- |
| OCc1ccc(Nc2c3ccccc3nc3ccccc23)cc1 [IIIc, 9-(4'-Hydroxymethyl)anilinoacridine] | 29 |

Test system: mouse leukemic cells L1210
Experiment: not given
Details: earlier work, U.S. Pat. No. 4,966,918; cited from earlier work

| Structure (SMILES) | activity against mouse leukemic cells L1210 in tissue culture |
| --- | --- |
| Cc1cc(O)c2c(c1)C(=O)c1cccc(O)c1C2=O [Compound 1A, chrysophanol] | practically inactive |
| Cc1cc(O)c2c(c1)C(=O)c1cc(O)cc(O)c1C2=O [Compound 1B, emodin] | practically inactive |
| O=C1c2cccc(O)c2C(=O)c2c(O)cc(CN(CCCl)CCCl)cc21 [Compound 3A, 3-[N,N-bis(2-chloroethyl)-amino]methyl-1,8-dihydroxy-9,10-anthraquinone] | potent inhibitory activity |
| COc1cc(O)c2c(c1)C(=O)c1cc(CN(CCCl)CCCl)cc(O)c1C2=O [Compound 3B] | potent inhibitory activity |

Test system: DNA
Experiment: not given
Details: Denny and Wakelin, Cancer Res., 46:1717 (1986); cited from earlier work

| Structure (SMILES) | intercalation into DNA |
| --- | --- |
| COc1cc(NS(C)(=O)=O)ccc1Nc1c2ccccc2nc2ccccc12 [amsacrin] | reversible |

Test system: topoisomerse II
Experiment: not given
Details: Nelson et al. 1984; Pommier et al. 1984; cited from earlier work

| Structure (SMILES) | DNA cleavage mediated by topoisomerse II |
| --- | --- |
| COc1cc(NS(C)(=O)=O)ccc1Nc1c2ccccc2nc2ccccc12 [amsacrin] | appears to induce DNA cleavage |
